Where two headings read alike, the source gives them in different places.
Legend:
platelet = assay: Blood platelet aggregation inhibiting effect (collagen-induced); assay type: cell-based, rabbits; conditions: Oryctolagus cuniculus, Platelet; 10^-4 mole, collagen inducer, rabbit PRP; read-out: Blood platelet agg. inh.: percentage inhibition of platelet aggregation
Source text: Male rabbits (Japan original white strain 3.3 to 3.6 kg) were anesthetized with Thiopental sodium and blood was sampled from the carotid artery.

hind paws of male rats = assay: Anti-inflammatory effect: acute carragheenin edema method; assay type: in vivo; conditions: for inhibition in vivo at 100 mg/kg: read-out: Anti-inf.: edema inhibition rate; for anti-inflammatory effect, inhibition rate (ED50), in words: rat, in vivo
Experimental: The edema was induced by subcutaneous injection of 1% carragheenin suspension in saline to the hind paws of male rats weighting 150 to 180 g. Each sample was orally given at the dosage of 100 mg/kg just before the inoculation of carragheenin.

thrombus = assay: Inhibiting effect on thrombosis (by-pass between left juglar vein and right carotid artery, silk thread); assay type: in vivo, SD type male rates; conditions: Rattus norvegicus, read-out: Thrombosis inh.: thrombosis inhibition rate
Method in brief: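 Arteriovenous shunt with silk thread and heparin saline, run as three successive 15-min circulations, with thrombus wet weight measured on the thread each time. Compound given orally in carboxymethyl cellulose suspension at 100 mg/kg 5 h before the first circulation. Inhibition rate derived against control circulations.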

in vivo = conditions: mouse, in vivo, po
Experimental: (§1) Each sample was dissolved in olive oil or dispersed in 1% Tween 20 aqueous solution.

male mice [1] = assay: Analgesic effect: painful stretchings following intraperitoneal 0.7% acetic acid; conditions: Mus musculus, po, read-out: Analgesic: percentage diminition of times of painful stretching
Experimental: Each sample was orally administered in the dosage of 100 mg/kg before injection of acetic acid.

[2] = system: adjuvant-induced arthritis; assay: Chronic inflammation (adjuvant-induced arthritis): reduction in edema of the hind paws; assay type: in vivo, female rats of Sprague Drawley strain
Experimental: (§2) The effects of 1 4-n-butyl benzophenone and 2 4-n-butyl-2'-fluorobenzophenone against adjuvant-induced arthritis were studied.
(§3) For the study, adult female rats of Sprague Drawley strain weighing approximately 200 g were used. All rats received 0.1 ml of a suspension of dry heat-killed tubercle bacilli (human strains, commercial product of Difco Co.) in liquid paraffin (5 mg/ml, w/v) by a single intradermal injection into the tail.
The treatment of the animals by the test compounds were started fourteen days after injection of the adjuvant when arthritis developed sufficiently accompanying edema and erythema in paws. Each compound was orally given to animals daily for ten days. […] Phenylbutazone was used as the reference drug.
(§4) Evaluations were made using the following parameters.
(2) Relative reduction in edema of the hind paws.

[3] = Chronic inflammation (adjuvant-induced arthritis): body weight gain; assay type: in vivo, female rats of Sprague Drawley strain
Experimental: as §2, §3
The treatment of the animals by the test compounds were started fourteen days after injection of the adjuvant when arthritis developed sufficiently accompanying edema and erythema in paws. […] […] Phenylbutazone was used as the reference drug.
as §4

male mice [4] = assay: in vivo; conditions: oral, male mice, within 72 hours (Table 2)
Experimental: as §1

[5] = Rattus norvegicus, 100 mg/kg oral, carragheenin edema, male rats (Table 2)
[6] = 100 mg/kg oral, 5 hours before first blood circulation, rats

Molecule `Cc1cc(C)c(C(=O)c2ccccc2C)c(C)c1` [Active ingredient No. 3] has an inhibition at 100 µM (platelet) of 17.3%, an inhibition in vivo at 100 mg/kg (hind paws of male rats; [5]) of 40% and an ED50 (hind paws of male rats; Rattus norvegicus, oral, carragheenin edema, male rats (Table 2), read-out: 50% inhibition ED50 (values in brackets)) of 290 mg/kg. It also gave an inhibition in vivo at 100 mg/kg (thrombus; [6]) of 38.3%, an LD50 at 72 h (in vivo) of 1500 mg/kg and an inhibition in vivo at 100 mg/kg (male mice [1]) of 11.3%.
Work on `CCCCCCc1ccc(C(=O)c2ccc(CCCC)cc2)cc1` [Active ingredient No. 5] yielded an inhibition at 100 µM (platelet) of 15.3%, an inhibition in vivo at 100 mg/kg (hind paws of male rats; [5]) of 46.3% and an inhibition in vivo at 100 mg/kg (thrombus; [6]) of 20.3%. It also gave an LD50 at 72 h (in vivo) of 5000 mg/kg and an inhibition in vivo at 100 mg/kg (male mice [1]) of 12.1%.
Molecule `CCCCCCc1ccc(C(=O)c2ccc(CCC)cc2)cc1` [Active ingredient No. 6] has an inhibition at 100 µM (platelet) of 17.8%, an inhibition in vivo at 100 mg/kg (hind paws of male rats; [5]) of 44.2% and an inhibition in vivo at 100 mg/kg (thrombus; [6]) of 15.9%. The LD50 at 72 h (in vivo) was 5000 mg/kg and the inhibition in vivo at 100 mg/kg (male mice [1]) was 14.5%.
In the case of `CCCCc1ccc(C(=O)c2ccccc2F)cc1` [Active ingredient No. 8, 4-n-butyl-2'-fluorobenzophenone], the “Relative volume ratio of swelling in hind paws, average, 6 days” value (shortened to “Relative volume ratio of swelling … 6 days”) ([2]; 50 mg/kg/day oral) is reported as 0.74, the “Relative volume ratio of swelling in hind paws, average, 10 days” value (from here on “Relative volume ratio of swelling … 10 days”) ([2]; 50 mg/kg/day oral) is reported as 0.76 and the “Relative volume ratio of swelling … 6 days” value ([2]; 100 mg/kg/day oral) is reported as 0.78. For the same molecule, the “Relative volume ratio of swelling … 10 days” value ([2]; 100 mg/kg/day oral) was 0.73, the “anti-inflammatory effect, inhibition rate (ED50), in words” value (hind paws of male rats) was “especially high inhibition rate (ED50)” and the “Body weight gain, average, 0 days” value ([3]; 50 mg/kg/day oral) was 222.6. For the same molecule, the “Body weight gain, average, 6 days” value ([3]; 50 mg/kg/day oral) was 223.0, the “Body weight gain, average, 10 days” value ([3]; 50 mg/kg/day oral) was 232.0 and the “Body weight gain, average, 0 days” value ([3]; 100 mg/kg/day oral) was 211.8. For the same molecule, the “Body weight gain, average, 6 days” value ([3]; 100 mg/kg/day oral) was 205.8 and the “Body weight gain, average, 10 days” value ([3]; 100 mg/kg/day oral) was 214.4.
With `CCCCc1ccc(C(=O)c2ccccc2)cc1` [Active ingredient No. 19, 4-n-butyl benzophenone] the “Relative volume ratio of swelling … 6 days” value ([2]; 100 mg/kg/day oral) was 0.97, the “Relative volume ratio of swelling … 10 days” value ([2]; 100 mg/kg/day oral) was 1.02 and the “Relative volume ratio of swelling … 6 days” value ([2]; 200 mg/kg/day oral) was 0.76. For the same molecule, the “Relative volume ratio of swelling … 10 days” value ([2]; 200 mg/kg/day oral) was 0.75, the “anti-inflammatory effect, inhibition rate (ED50), in words” value (hind paws of male rats) was “especially high inhibition rate (ED50)” and the “Body weight gain, average, 0 days” value ([3]; 100 mg/kg/day oral) was 229.2. For the same molecule, the “Body weight gain, average, 6 days” value ([3]; 100 mg/kg/day oral) was 217.5, the “Body weight gain, average, 10 days” value ([3]; 100 mg/kg/day oral) was 218.2 and the “Body weight gain, average, 0 days” value ([3]; 200 mg/kg/day oral) was 214.1. The “Body weight gain, average, 6 days” value ([3]; 200 mg/kg/day oral) was 213.3 and the “Body weight gain, average, 10 days” value ([3]; 200 mg/kg/day oral) was 220.1.
With `CCCCC1C(=O)N(c2ccccc2)N(c2ccccc2)C1=O` [Phenylbutazone, reference compound] the “Relative volume ratio of swelling … 6 days” value ([2]; 50 mg/kg/day oral) was 0.75, the “Relative volume ratio of swelling … 10 days” value ([2]; 50 mg/kg/day oral) was 0.75 and the “Body weight gain, average, 0 days” value ([3]; 50 mg/kg/day oral) was 215.6. For the same molecule, the “Body weight gain, average, 6 days” value ([3]; 50 mg/kg/day oral) was 207.7 and the “Body weight gain, average, 10 days” value ([3]; 50 mg/kg/day oral) was 214.3.
In the case of `COc1ccc(C(=O)c2ccccc2)cc1` [compound 28], the inhibition at 100 µM (platelet) is reported as 20.4%, the inhibition in vivo at 100 mg/kg (hind paws of male rats; Rattus norvegicus, po) is reported as 44.1% and the inhibition in vivo at 100 mg/kg (thrombus; po, 5 h) is reported as 7.3%. For the same molecule, the “Acute toxicity LD50” value (male mice [4]) was greater than 10000 mg/kg and the inhibition in vivo at 100 mg/kg (male mice [1]) was 4.2%.
With `CCc1ccc(C(=O)c2ccc(CC)cc2)cc1` [compound 106] the inhibition at 100 µM (platelet) was 20.3%, the inhibition in vivo at 100 mg/kg (hind paws of male rats; [5]) was 26.4% and the inhibition in vivo at 100 mg/kg (thrombus; [6]) was 20.2%. The inhibition in vivo at 100 mg/kg (male mice [1]) was 7.3%.
`CCc1ccc(C(=O)c2ccc(OC)cc2)cc1` [compound 107] gave an inhibition at 100 µM (platelet) of 20.3%, an inhibition in vivo at 100 mg/kg (hind paws of male rats; Rattus norvegicus, po) of 20.3% and an inhibition in vivo at 100 mg/kg (thrombus; [6]) of 19.6%. For the same molecule, the inhibition in vivo at 100 mg/kg (male mice [1]) was 13.2%.
`Cc1cc(C)c(C(=O)c2ccc(O)cc2)c(C)c1` [compound 108] gave an inhibition at 100 µM (platelet) of 28.4%, an inhibition in vivo at 100 mg/kg (hind paws of male rats; [5]) of 10.5% and an inhibition in vivo at 100 mg/kg (thrombus; [6]) of 34.7%. The inhibition in vivo at 100 mg/kg (male mice [1]) was 3.1%.
`O=C(c1ccccc1)c1ccc(O)cc1` [compound 109] gave an inhibition at 100 µM (platelet) of 13.7%, an inhibition in vivo at 100 mg/kg (hind paws of male rats; [5]) of 12.7% and an inhibition in vivo at 100 mg/kg (thrombus; [6]) of 20.3%. It also gave an inhibition in vivo at 100 mg/kg (male mice [1]) of 2.6%.
For `CCCc1ccc(C(=O)c2ccc(CCC)cc2)cc1` [compound 110], the inhibition at 100 µM (platelet) was 20.5%, the inhibition in vivo at 100 mg/kg (hind paws of male rats; [5]) was 17% and the inhibition in vivo at 100 mg/kg (thrombus; [6]) was 18.6%. The inhibition in vivo at 100 mg/kg (male mice [1]) was 10.5%.
`CCCCCc1ccc(C(=O)c2ccc(CCCCC)cc2)cc1` [compound 111] showed an inhibition at 100 µM (platelet) of 10.3%, an inhibition in vivo at 100 mg/kg (hind paws of male rats; [5]) of 20.6% and an inhibition in vivo at 100 mg/kg (thrombus; [6]) of 17.3%. For the same molecule, the inhibition in vivo at 100 mg/kg (male mice [1]) was 11.3%.
`CCCc1ccc(C(=O)c2ccc(CC)cc2)cc1` [compound 112] showed an inhibition at 100 µM (platelet) of 11.8%, an inhibition in vivo at 100 mg/kg (hind paws of male rats; [5]) of 14.1% and an inhibition in vivo at 100 mg/kg (thrombus; [6]) of 15.5%. The inhibition in vivo at 100 mg/kg (male mice [1]) was 6.7%.
Molecule `O=C(c1ccccc1)c1ccccc1C(=O)c1ccccc1` [compound 113] has an inhibition at 100 µM (platelet) of 25.8%, an inhibition in vivo at 100 mg/kg (hind paws of male rats; [5]) of 38.7% and an inhibition in vivo at 100 mg/kg (thrombus; [6]) of 30.4%. For the same molecule, the inhibition in vivo at 100 mg/kg (male mice [1]) was 14.5%.
For `O=C(c1ccc(F)cc1)c1ccc(F)cc1` [compound 114], the inhibition at 100 µM (platelet) was 26.8%, the inhibition in vivo at 100 mg/kg (hind paws of male rats; [5]) was 33.2% and the inhibition in vivo at 100 mg/kg (thrombus; [6]) was 31.1%. The inhibition in vivo at 100 mg/kg (male mice [1]) was 18.3%.
`O=C(c1ccc(F)cc1)c1ccccc1Cl` [compound 115] showed an inhibition at 100 µM (platelet) of 25.4%, an inhibition in vivo at 100 mg/kg (hind paws of male rats; [5]) of 14.5% and an inhibition in vivo at 100 mg/kg (thrombus; [6]) of 27.5%. It also gave an inhibition in vivo at 100 mg/kg (male mice [1]) of 11.8%.

From patent publication US4145444A, “Anti-inflammatory agent of benzoyl derivative” (priority 1977, dated 1979)
